Reference: patent US11339130B1 (Blade Therapeutics, Inc., priority 2016, dated 2022)

How the values were obtained:
[1] = target: T1, Human Calpain 9/NS1 (Homo sapiens, UniProt O14815); assay: Calpain inhibition continuous fluorescence (FRET) assay, Human Calpain 9/NS1; assay type: biochemical; details: read-out: Human Calpain 9/NS1 IC50
T1 sequence (O14815 1-690): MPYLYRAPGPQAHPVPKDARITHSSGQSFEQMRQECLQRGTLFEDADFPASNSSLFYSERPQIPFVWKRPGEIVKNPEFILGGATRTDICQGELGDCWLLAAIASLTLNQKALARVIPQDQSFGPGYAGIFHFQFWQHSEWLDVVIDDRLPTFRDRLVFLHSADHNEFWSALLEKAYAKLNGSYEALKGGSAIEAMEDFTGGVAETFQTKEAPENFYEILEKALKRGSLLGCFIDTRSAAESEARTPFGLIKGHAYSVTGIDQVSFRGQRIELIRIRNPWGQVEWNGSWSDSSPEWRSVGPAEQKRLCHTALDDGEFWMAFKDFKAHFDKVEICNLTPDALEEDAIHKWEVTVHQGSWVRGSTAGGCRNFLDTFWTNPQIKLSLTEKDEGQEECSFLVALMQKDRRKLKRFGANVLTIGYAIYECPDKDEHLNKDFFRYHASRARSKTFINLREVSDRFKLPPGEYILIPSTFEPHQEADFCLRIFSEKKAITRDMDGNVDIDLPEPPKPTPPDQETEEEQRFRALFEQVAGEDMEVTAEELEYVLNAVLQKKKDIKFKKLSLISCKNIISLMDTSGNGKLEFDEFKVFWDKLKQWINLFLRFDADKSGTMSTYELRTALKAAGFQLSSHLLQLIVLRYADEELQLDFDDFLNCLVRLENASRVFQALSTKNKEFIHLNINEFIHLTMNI
T1 sequence (P04632 1-268 partner): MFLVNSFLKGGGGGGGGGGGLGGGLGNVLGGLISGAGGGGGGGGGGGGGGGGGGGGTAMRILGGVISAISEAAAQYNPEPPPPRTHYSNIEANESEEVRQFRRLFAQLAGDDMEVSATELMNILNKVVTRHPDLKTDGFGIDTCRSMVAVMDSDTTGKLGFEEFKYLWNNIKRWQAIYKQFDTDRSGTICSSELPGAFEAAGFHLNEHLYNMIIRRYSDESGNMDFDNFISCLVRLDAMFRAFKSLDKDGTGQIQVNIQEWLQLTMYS
Procedure, shortened: (§1)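 Inhibitors were preincubated with calpain in 50 mM Tris pH 7.5, 100 mM NaCl, 1 mM DTT at 25C. Reactions were started with 5-FAM/QXL 520 FRET peptide substrate plus CaCl2 and read at 490/520 nm for 10 min. IC50s came from 4-parameter fits of slope rates (1-5 min).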

[2] = target: T2, Human Calpain 1/NS1 (Homo sapiens, UniProt P07384); assay: Calpain inhibition continuous fluorescence (FRET) assay, Human Calpain 1/NS1; assay type: biochemical; details: read-out: Human Calpain 1/NS1 IC50
T2 sequence (P07384 1-714): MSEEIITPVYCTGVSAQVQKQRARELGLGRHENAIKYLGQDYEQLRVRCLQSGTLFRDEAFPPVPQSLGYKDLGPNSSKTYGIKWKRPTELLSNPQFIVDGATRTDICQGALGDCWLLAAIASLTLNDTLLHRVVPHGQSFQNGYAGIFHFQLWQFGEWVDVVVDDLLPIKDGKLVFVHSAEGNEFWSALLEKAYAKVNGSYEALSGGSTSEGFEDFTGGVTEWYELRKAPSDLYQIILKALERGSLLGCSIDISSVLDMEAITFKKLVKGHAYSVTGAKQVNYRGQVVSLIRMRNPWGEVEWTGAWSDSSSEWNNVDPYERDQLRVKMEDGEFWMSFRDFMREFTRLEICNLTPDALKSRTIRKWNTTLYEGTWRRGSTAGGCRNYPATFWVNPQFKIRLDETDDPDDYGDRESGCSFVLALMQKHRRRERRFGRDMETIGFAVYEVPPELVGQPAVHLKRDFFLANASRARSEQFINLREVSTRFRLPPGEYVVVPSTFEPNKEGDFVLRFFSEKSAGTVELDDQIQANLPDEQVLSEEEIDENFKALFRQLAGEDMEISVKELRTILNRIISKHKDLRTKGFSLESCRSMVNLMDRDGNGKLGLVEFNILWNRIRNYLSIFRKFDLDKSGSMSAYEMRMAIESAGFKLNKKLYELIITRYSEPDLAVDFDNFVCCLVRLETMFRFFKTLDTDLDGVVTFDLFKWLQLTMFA
T2 sequence (P04632 1-268 partner): T1 sequence (P04632 1-268 partner)
Procedure, shortened: as §1

[3] = test system: Calpain activity in SH-SY5Y cells; assay: SH-SY5Y + AMC fluorescence assay (Suc-LLVY-AMC substrate); assay type: cell-based; details: read-out: SH-SY5Y + AMC IC50
[4] = test system: Calpain activity in SH-SY5Y cells (SBDP-150); assay: SH-SY5Y Spectrin western blot assay (SBDP-150 breakdown product, A23187-induced); assay type: cell-based; details: Homo sapiens; SH-SY5Y cells, A23187-induced SBDP-150, western blot; read-out: SH-SY5Y Spectrin IC50
[5] = target: T3, Human Calpain 2/NS1 (Homo sapiens, UniProt P17655); assay: Calpain inhibition continuous fluorescence (FRET) assay, Human Calpain 2/NS1; assay type: biochemical; details: read-out: Human Calpain 2/NS1 IC50
T3 sequence (P17655 1-700): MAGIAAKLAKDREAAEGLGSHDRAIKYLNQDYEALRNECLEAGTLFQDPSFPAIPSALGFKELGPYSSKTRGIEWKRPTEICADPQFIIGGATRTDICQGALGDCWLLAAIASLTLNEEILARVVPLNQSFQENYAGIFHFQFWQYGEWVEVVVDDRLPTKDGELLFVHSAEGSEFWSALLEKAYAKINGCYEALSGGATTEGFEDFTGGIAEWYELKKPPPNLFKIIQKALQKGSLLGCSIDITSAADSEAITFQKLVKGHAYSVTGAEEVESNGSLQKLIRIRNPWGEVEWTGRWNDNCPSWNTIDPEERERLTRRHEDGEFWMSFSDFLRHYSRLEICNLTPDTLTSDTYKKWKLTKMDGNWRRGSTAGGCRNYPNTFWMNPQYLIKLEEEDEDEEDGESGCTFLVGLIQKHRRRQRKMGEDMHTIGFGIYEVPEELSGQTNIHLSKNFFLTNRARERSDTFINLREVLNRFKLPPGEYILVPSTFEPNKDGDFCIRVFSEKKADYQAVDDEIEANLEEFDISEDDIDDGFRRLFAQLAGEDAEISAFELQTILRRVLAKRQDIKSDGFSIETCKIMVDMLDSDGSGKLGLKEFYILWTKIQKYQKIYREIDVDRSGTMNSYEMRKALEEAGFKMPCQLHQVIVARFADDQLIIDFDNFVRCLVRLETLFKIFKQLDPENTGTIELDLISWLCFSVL
T3 sequence (P04632 1-268 partner): T1 sequence (P04632 1-268 partner)
Procedure, shortened: as §1

Row | Compound | IC50 [1] | IC50 [2] | IC50 [3] | IC50 [4] | IC50 [5]
1 | Cc1cc(C(=O)NC(Cc2ccccc2)C(=O)C(N)=O)n(-c2ccc(CNC(=O)c3ccc(F)cc3)cc2)n1 (stereo not drawn) [Compound 496, N-(4-amino-3,4-dioxo-1-phenylbutan-2-yl)-1-(4-((4-fluorobenzamido)methyl)phenyl)-3-methyl-1H-pyrazole-5-carboxamide] | < 3 µM | < 3 µM | > 25 µM | 10 to 25 µM | < 3 µM
2 | NC(=O)C(=O)C(Cc1ccccc1)NC(=O)c1cc(Br)nn1-c1ncccn1 (stereo not drawn) [Compound 497, N-(4-amino-3,4-dioxo-1-phenylbutan-2-yl)-3-bromo-1-(pyrimidin-2-yl)-1H-pyrazole-5-carb oxamide] | < 3 µM | < 3 µM | < 10 µM | 10 to 25 µM | < 3 µM
3 | Cc1ccc(-c2nn(C)cc2C(=O)NC(Cc2ccccc2)C(=O)C(N)=O)o1 (stereo not drawn) [Compound 498, N-(4-amino-3,4-dioxo-1-phenylbutan-2-yl)-1-methyl-3-(5-methylfuran-2-yl)-1H-pyrazole-4-carboxamide] | < 3 µM | < 3 µM | 10 to 25 µM | > 25 µM | < 3 µM
4 | Cc1cc(-c2nn(C)cc2C(=O)NC(Cc2ccccc2)C(=O)C(N)=O)c(C)s1 (stereo not drawn) [Compound 499, N-(4-amino-3,4-dioxo-1-phenylbutan-2-yl)-3-(2,5-dimethylthiophen-3-yl)-1-methyl-1H-pyrazole-4-carboxamide] | < 3 µM | < 3 µM | < 10 µM | 10 to 25 µM | < 3 µM
5 | Cn1cc(C(=O)NC(Cc2ccccc2)C(=O)C(N)=O)c(-c2ccco2)n1 (stereo not drawn) [Compound 500, N-(4-amino-3,4-dioxo-1-phenylbutan-2-yl)-3-(furan-2-yl)-1-methyl-1H-pyrazole-4-carboxamide] | < 3 µM | < 3 µM | < 10 µM | 10 to 25 µM | < 3 µM
6 | Cn1cc(C(=O)NC(Cc2ccccc2)C(=O)C(N)=O)c(-c2ccsc2Cl)n1 (stereo not drawn) [Compound 501, N-(4-amino-3,4-dioxo-1-phenylbutan-2-yl)-3-(2-chlorothiophen-3-yl)-1-methyl-1H-pyrazole-4-carboxamide] | < 3 µM | < 3 µM | < 10 µM | 10 to 25 µM | < 3 µM
7 | Cn1cc(C(=O)NC(Cc2ccccc2)C(=O)C(N)=O)c(-c2ccoc2)n1 (stereo not drawn) [Compound 502, N-(4-amino-3,4-dioxo-1-phenylbutan-2-yl)-3-(furan-3-yl)-1-methyl-1H-pyrazole-4-carboxamide] | < 3 µM | < 3 µM | < 10 µM | 10 to 25 µM | < 3 µM
8 | Cc1csc(-c2nn(C)cc2C(=O)NC(Cc2ccccc2)C(=O)C(N)=O)c1 (stereo not drawn) [Compound 504, N-(4-amino-3,4-dioxo-1-phenylbutan-2-yl)-1-methyl-3-(4-methylthiophen-2-yl)-1H-pyrazole-4-carboxamide] | < 3 µM | < 3 µM | > 25 µM | > 25 µM | < 3 µM
9 | COc1ccc(F)c(-c2nn(C)cc2C(=O)NC(Cc2ccccc2)C(=O)C(N)=O)c1 (stereo not drawn) [Compound 507, N-(4-amino-3,4-dioxo-1-phenylbutan-2-yl)-3-(2-fluoro-5-methoxyphenyl)-1-methyl-1H-pyrazole-4-carboxamide] | < 3 µM | < 3 µM | < 10 µM | 10 to 25 µM | < 3 µM
10 | Cn1cc(C(=O)NC(Cc2ccccc2)C(=O)C(N)=O)c(-c2cccc(C(F)F)c2)n1 (stereo not drawn) [Compound 508, N-(4-amino-3,4-dioxo-1-phenylbutan-2-yl)-3-(3-(difluoromethyl)phenyl)-1-methyl-1H-pyrazole-4-carboxamide] | < 3 µM | < 3 µM | < 10 µM | < 10 µM | < 3 µM

The remaining lines, values ahead:

Row | IC50 [1] | IC50 [2] | IC50 [3] | IC50 [4] | IC50 [5] | Compound
11 | < 3 µM | < 3 µM | 10 to 25 µM | 10 to 25 µM | < 3 µM | COc1cccc(-c2nn(C)cc2C(=O)NC(Cc2ccccc2)C(=O)C(N)=O)c1F (stereo not drawn) [Compound 509, N-(4-amino-3,4-dioxo-1-phenylbutan-2-yl)-3-(2-fluoro-3-methoxyphenyl)-1-methyl-1H-pyrazole-4-carboxamide]
12 | < 3 µM | < 3 µM | 10 to 25 µM | 10 to 25 µM | < 3 µM | Cn1cc(C(=O)NC(Cc2ccccc2)C(=O)C(N)=O)c(-c2cccc3c2OC(F)(F)O3)n1 (stereo not drawn) [Compound 510, N-(4-amino-3,4-dioxo-1-phenylbutan-2-yl)-3-(2,2-difluorobenzo[d][1,3]dioxol-4-yl)-1-methyl-1H-pyrazole-4-carboxamide]
13 | 3 to 10 µM | 3 to 10 µM | < 10 µM | > 25 µM | 3 to 10 µM | Cn1cc(C(=O)NC(Cc2ccccc2)C(=O)C(N)=O)c(-c2cccc(F)c2C(F)(F)F)n1 (stereo not drawn) [Compound 512, N-(4-amino-3,4-dioxo-1-phenylbutan-2-yl)-3-(3-fluoro-2-(trifluoromethyl)phenyl)-1-methyl-1H-pyrazole-4-carboxamide]
14 | 3 to 10 µM | 3 to 10 µM | < 10 µM | > 25 µM | 3 to 10 µM | Cn1cc(C(=O)NC(Cc2ccccc2)C(=O)C(N)=O)c(-c2ccccc2C(F)(F)F)n1 (stereo not drawn) [Compound 513, N-(4-amino-3,4-dioxo-1-phenylbutan-2-yl)-1-methyl-3-(2-(trifluoromethyl)phenyl)-1H-pyrazole-4-carboxamide]
15 | < 3 µM | < 3 µM | < 10 µM | > 25 µM | < 3 µM | Cn1cc(C(=O)NC(Cc2ccccc2)C(=O)C(N)=O)c(-c2cccc3c2OCO3)n1 (stereo not drawn) [Compound 514, N-(4-amino-3,4-dioxo-1-phenylbutan-2-yl)-3-(benzo[d][1,3]dioxol-4-yl)-1-methyl-1H-pyrazole-4-carboxamide]
